Measurements from patent EP0397424A2, “Multiple analysis system” (Biotrack, Inc., priority 1989, dated 1990).

System: red cells
Test: Red cell lysis by detergent-saturated polyethylene reagent pads (completeness of lysis, red cell fragments)
Assay type: cell-based
Parameters: key: + = complete lysis or absence of red cell fragments; - = incomplete lysis or presence of red cell fragments
Details: blood passed through reagent pad saturated with detergent solution
Experimental: Centered polyethylene reagent pads were saturated with a detergent solution, and the ability of the pad to provide completely lysed blood not containing any red cell fragments was analyzed. Since this sample is also used in the blood donor cartridge as described above to provide sample that is used in an agglutination reaction, inhibition of the agglutination reaction was also measured. Inhibition of agglutination was done subjectively, with 0 indicating little or no inhibition of agglutination and 5 representing the maximum amount of inhibition (essentially no agglutination under normal agglutinating conditions).
Other combinations of detergents can be determined in the same manner by measuring both red cell lysis and inhibition of agglutination and selecting a combination of detergents that provides the desired complete lysis with a minimum of inhibition.

mellitin
Red Cell Fragments (+ = absence of fragments): -
Incomplete RBC lysis (+ = complete lysis): +
